Test results published in article PMC7315737, “The putative Escherichia coli dehydrogenase YjhC metabolises two dehydrated forms of N-acetylneuraminate produced by some sialidases” (Bioscience Reports, 2020).

Target: T1, YjhC (Escherichia coli, UniProt P39353)
T1 construct: gene nanY; full-length ORF from ASKA library in pCA24N, N-terminal His6-tag kept, expressed in E. coli BL21
Experiment: LC-MS of ligand co-purified with the enzyme
Type: binding
Conditions: co-purified after metal affinity and gel filtration

T1 sequence (P39353 whole entry): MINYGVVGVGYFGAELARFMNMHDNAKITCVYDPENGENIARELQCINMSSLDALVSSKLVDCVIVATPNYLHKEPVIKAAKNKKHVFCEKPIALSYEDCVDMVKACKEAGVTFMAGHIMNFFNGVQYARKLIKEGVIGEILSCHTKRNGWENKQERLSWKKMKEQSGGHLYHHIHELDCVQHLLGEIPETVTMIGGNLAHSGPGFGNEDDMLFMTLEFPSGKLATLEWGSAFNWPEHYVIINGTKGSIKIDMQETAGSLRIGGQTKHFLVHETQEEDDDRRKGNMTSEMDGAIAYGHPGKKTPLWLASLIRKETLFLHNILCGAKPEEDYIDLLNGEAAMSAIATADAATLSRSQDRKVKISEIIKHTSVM

NC(=O)C1=CN([C@@H]2O[C@H](COP(=O)(O)OP(=O)(O)OC[C@H]3O[C@@H](n4cnc5c(N)ncnc54)[C@H](O)[C@@H]3O)[C@@H](O)[C@H]2O)C=CC1 [NADH]
co-purified ligand detected: presence of small amounts of NAD^+ and NADH
